# Reference: ChEMBL document CHEMBL1201862, “PubChem BioAssay data set” (2004)
#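 A five-concentration, 48-hour dose response in 96-well plates underlies each endpoint, interpolated linearly between surrounding concentrations. GI50 = concentration required for 50% inhibition of growth.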 Active and inactive are the calls of the source. Rule as the data show it: active = GI50 up to about 1.1 µM and inactive = higher.
# Tests used:
# Experiment in all cases: growth of human tumour cells (NCI), 48 h
# 786-0 = system: 786-0
# A498 = system: A498
# A549 = system: A549
# ACHN = system: ACHN
# CAKI-1 = system: CAKI-1
# CCRF-CEM = system: CCRF-CEM
# COLO 205 = system: COLO 205
# DU-145 = system: DU-145
# EKVX = system: EKVX
# HCC 2998 = system: HCC 2998
# HCT-116 = system: HCT-116
# HCT-15 = system: HCT-15
# HL-60 = system: HL-60
# HOP-62 = system: HOP-62
# HOP-92 = system: HOP-92
# HT-29 = system: HT-29
# Hs-578T = system: Hs-578T
# IGROV-1 = system: IGROV-1
# K562 = system: K562
# KM12 = system: KM12
# LOX IMVI = system: LOX IMVI
# M14 = system: M14
# MCF7 = system: MCF7
# MDA-MB-231 = system: MDA-MB-231
# MDA-MB-435 = system: MDA-MB-435
# MDA-N = system: MDA-N
# MOLT-4 = system: MOLT-4
# Malme-3M = system: Malme-3M
# NCI-H226 = system: NCI-H226
# NCI-H23 = system: NCI-H23
# NCI-H460 = system: NCI-H460
# NCI-H522 = system: NCI-H522
# NCI/ADR-RES = system: NCI/ADR-RES
# OVCAR-3 = system: OVCAR-3
# OVCAR-4 = system: OVCAR-4
# OVCAR-5 = system: OVCAR-5
# OVCAR-8 = system: OVCAR-8
# PC-3 = system: PC-3
# RPMI-8226 = system: RPMI-8226
# RXF 393 = system: RXF 393
# SF-268 = system: SF-268
# SF-295 = system: SF-295
# SF-539 = system: SF-539
# SK-MEL-28 = system: SK-MEL-28
# SK-MEL-2 = system: SK-MEL-2
# SK-MEL-5 = system: SK-MEL-5
# SK-OV-3 = system: SK-OV-3
# SN12C = system: SN12C
# SNB-19 = system: SNB-19
# SNB-75 = system: SNB-75
# SR = system: SR
# SW-620 = system: SW-620
# T47D = system: T47D
# TK-10 = system: TK-10
# U-251 = system: U-251
# UACC-257 = system: UACC-257
# UO-31 = system: UO-31
# UACC-62 = system: UACC-62
smiles,measurement,setting,value
CCc1cc2c(cc1CCCC(=O)O)CC1(Cc3ccc(C(=O)O)cc3C1)C2 (centres undefined),GI50,786-0,> 100 µM (inactive)
same,GI50,A498,> 100 µM (inactive)
same,GI50,A549,> 100 µM (inactive)
same,GI50,ACHN,> 100 µM (inactive)
same,GI50,CAKI-1,> 100 µM (inactive)
same,GI50,CCRF-CEM,> 100 µM (inactive)
same,GI50,COLO 205,> 100 µM (inactive)
same,GI50,DU-145,> 100 µM (inactive)
same,GI50,EKVX,> 100 µM (inactive)
same,GI50,HCC 2998,> 100 µM (inactive)
same,GI50,HCT-116,> 100 µM (inactive)
same,GI50,HCT-15,> 100 µM
same,GI50,HL-60,> 100 µM (inactive)
same,GI50,HOP-62,> 100 µM (inactive)
same,GI50,HOP-92,> 100 µM (inactive)
same,GI50,HT-29,> 100 µM (inactive)
same,GI50,Hs-578T,> 100 µM (inactive)
same,GI50,IGROV-1,> 100 µM (inactive)
same,GI50,K562,> 100 µM (inactive)
same,GI50,KM12,> 100 µM (inactive)
same,GI50,LOX IMVI,> 100 µM (inactive)
same,GI50,M14,> 100 µM (inactive)
same,GI50,MCF7,> 100 µM (inactive)
same,GI50,MDA-MB-231,> 100 µM (inactive)
same,GI50,MDA-MB-435,> 100 µM (inactive)
same,GI50,MDA-N,> 100 µM (inactive)
same,GI50,MOLT-4,> 100 µM (inactive)
same,GI50,Malme-3M,> 100 µM (inactive)
same,GI50,NCI-H226,> 100 µM (inactive)
same,GI50,NCI-H23,> 100 µM (inactive)
same,GI50,NCI-H460,> 100 µM (inactive)
same,GI50,NCI-H522,> 100 µM (inactive)
same,GI50,NCI/ADR-RES,> 100 µM (inactive)
same,GI50,OVCAR-3,> 100 µM (inactive)
same,GI50,OVCAR-4,> 100 µM (inactive)
same,GI50,OVCAR-5,> 100 µM (inactive)
same,GI50,OVCAR-8,> 100 µM (inactive)
same,GI50,PC-3,> 100 µM (inactive)
same,GI50,RPMI-8226,> 100 µM (inactive)
same,GI50,RXF 393,> 100 µM (inactive)
same,GI50,SF-268,> 100 µM (inactive)
same,GI50,SF-295,> 100 µM (inactive)
same,GI50,SF-539,> 100 µM (inactive)
same,GI50,SK-MEL-28,> 100 µM (inactive)
same,GI50,SK-MEL-2,> 100 µM (inactive)
same,GI50,SK-MEL-5,> 100 µM (inactive)
same,GI50,SK-OV-3,> 100 µM (inactive)
same,GI50,SN12C,> 100 µM (inactive)
same,GI50,SNB-19,> 100 µM (inactive)
same,GI50,SNB-75,> 100 µM (inactive)
same,GI50,SR,> 100 µM (inactive)
same,GI50,SW-620,> 100 µM (inactive)
same,GI50,T47D,> 100 µM (inactive)
same,GI50,TK-10,> 100 µM (inactive)
same,GI50,U-251,> 100 µM (inactive)
same,GI50,UACC-257,> 100 µM (inactive)
same,GI50,UO-31,> 100 µM (inactive)
CCOC(=O)C(=O)N1C(C)=C(C(=O)OCC)CC(C(=O)OCC)=C1C,GI50,786-0,> 100 µM (inactive)
same,GI50,A498,> 100 µM (inactive)
same,GI50,A549,> 100 µM (inactive)
same,GI50,ACHN,> 100 µM (inactive)
same,GI50,CAKI-1,> 100 µM (inactive)
same,GI50,CCRF-CEM,> 100 µM (inactive)
same,GI50,COLO 205,> 100 µM (inactive)
same,GI50,DU-145,> 100 µM (inactive)
same,GI50,EKVX,> 100 µM (inactive)
same,GI50,HCC 2998,> 100 µM (inactive)
same,GI50,HCT-116,> 100 µM (inactive)
same,GI50,HCT-15,> 100 µM
same,GI50,HL-60,> 100 µM (inactive)
same,GI50,HOP-62,> 100 µM (inactive)
same,GI50,HOP-92,> 100 µM (inactive)
same,GI50,Hs-578T,> 100 µM (inactive)
same,GI50,IGROV-1,> 100 µM (inactive)
same,GI50,K562,> 100 µM (inactive)
same,GI50,KM12,> 100 µM (inactive)
same,GI50,LOX IMVI,> 100 µM (inactive)
same,GI50,M14,> 100 µM (inactive)
same,GI50,MCF7,> 100 µM (inactive)
same,GI50,MDA-MB-231,> 100 µM (inactive)
same,GI50,MDA-MB-435,> 100 µM (inactive)
same,GI50,MDA-N,> 100 µM (inactive)
same,GI50,MOLT-4,> 100 µM (inactive)
same,GI50,Malme-3M,> 100 µM (inactive)
same,GI50,NCI-H23,> 100 µM (inactive)
same,GI50,NCI-H460,> 100 µM (inactive)
same,GI50,NCI-H522,> 100 µM (inactive)
same,GI50,OVCAR-3,> 100 µM (inactive)
same,GI50,OVCAR-4,> 100 µM (inactive)
same,GI50,OVCAR-5,> 100 µM (inactive)
same,GI50,PC-3,> 100 µM (inactive)
same,GI50,RPMI-8226,> 100 µM (inactive)
same,GI50,RXF 393,> 100 µM (inactive)
same,GI50,SF-295,> 100 µM (inactive)
same,GI50,SF-539,> 100 µM (inactive)
same,GI50,SK-MEL-28,> 100 µM (inactive)
same,GI50,SK-MEL-2,> 100 µM (inactive)
same,GI50,SK-MEL-5,> 100 µM (inactive)
same,GI50,SK-OV-3,> 100 µM (inactive)
same,GI50,SN12C,> 100 µM (inactive)
same,GI50,SNB-19,> 100 µM (inactive)
same,GI50,SNB-75,26.7 µM (inactive)
same,GI50,SR,> 100 µM (inactive)
same,GI50,SW-620,> 100 µM (inactive)
same,GI50,T47D,> 100 µM (inactive)
same,GI50,TK-10,> 100 µM (inactive)
same,GI50,UACC-257,> 100 µM (inactive)
same,GI50,UACC-62,> 100 µM (inactive)
same,GI50,UO-31,> 100 µM (inactive)
